# Read-outs that look alike come from different tables or passages of the source.
# What was measured:
# [1] = system: vancomycin resistant enterococci (VRE) E. faecium; assay: Broth microdilution MIC/MBC, VRE E. faecium; assay type: cell-based; conditions: for MIC: read-out: MIC
# [2] = system: methicillin-resistant Staphylococcus aureus (MRSA); assay: Broth microdilution MIC/MBC, MRSA; assay type: cell-based
# [3] = system: B. cereus; assay: Broth microdilution MIC/MBC, B. cereus; assay type: cell-based; conditions: Bacillus cereus; for MBC: read-out: MBC; for MIC: read-out: MIC
# From the text: The broth microdilution technique was used, followed by subculturing on agar plates that were rhodanine—free.
# [4] = system: Bacillus Strains; assay: Broth microdilution MIC50/MIC90 and MIC range, Bacillus strains panel; assay type: cell-based, Bacillus spp.; conditions: 10 Bacillus strains
# From the text: The broth microdilution technique was used, followed by subculturing on agar plates that were rhodanine—free. […] The MICs reported represent the lowest concentration of each compound necessary to inhibit bacterial growth and the MBCs represent the lowest concentration required to reduce the initial bacterial inoculum by ≥ 99.9%.
# [5] = system: Mycobacterium smegmatis; assay: Broth microdilution MIC/MBC, Mycobacterium smegmatis; assay type: cell-based; conditions: Mycolicibacterium smegmatis, ATCC14468, M. Smegmatis ATCC 14468
# [6] = system: P. aeruginosa; assay: Broth microdilution MIC, P. aeruginosa; assay type: cell-based; conditions: Pseudomonas aeruginosa
# [7] = system: K. pneumoniae; assay: Broth microdilution MIC, K. pneumoniae; assay type: cell-based
# [8] = system: Candida albicans; assay: MIC against Candida albicans; assay type: cell-based; conditions: table prints none, read-out: MIC
# [9] = system: Acinetobacter baumannii; assay: MIC with/without sub-MIC colistin, Acinetobacter baumannii; assay type: cell-based
# Outline: (§1)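 Rhodanines and control antibiotics are tested for MIC against Gram-negative bacteria while a sub-inhibitory level of colistin or PMBN is present. A strain of E. coli lacking the AcrAB efflux pump (SM1411ΔacrAB) serves as an additional test organism.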
# [10] = system: Escherichia coli O157:H7; assay: MIC with/without sub-MIC colistin, Escherichia coli O157:H7; assay type: cell-based
# Outline: as §1
# [11] = system: Salmonella Typhimurium; assay: MIC with/without sub-MIC colistin, Salmonella Typhimurium; assay type: cell-based
# Outline: as §1
# [12] = system: Klebsiella pneumoniae; assay: MIC with/without sub-MIC colistin, Klebsiella pneumoniae; assay type: cell-based
# Outline: as §1
# [13] = system: Pseudomonas aeruginosa; assay: MIC with/without sub-MIC colistin, Pseudomonas aeruginosa; assay type: cell-based
# Outline: as §1
# [14] = system: Escherichia coli O157:H7; assay: MIC with/without PMBN, Escherichia coli O157:H7; assay type: cell-based
# Outline: as §1
# [15] = system: Pseudomonas aeruginosa; assay: MIC with/without PMBN, Pseudomonas aeruginosa; assay type: cell-based
# Outline: as §1
# [16] = system: Escherichia coli Δ acrAB; assay: MIC against E. coli 1411 and AcrAB efflux pump deficient E. coli SM1411Δ acrAB; assay type: cell-based
# Outline: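 MIC of rhodanines and control antibiotics measured against Gram-negative bacteria in the presence of a sub-inhibitory concentration of colistin or polymixin B nonapeptide (PMBN). Activity was also tested against E. coli SM1411ΔacrAB, which lacks the AcrAB multidrug efflux pump.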
# [17] = E. faecium HM 968 Strain ERV102
# [18] = E. faecium NR31914 Strain E0120
# [19] = E. faecium Patient #1–1 NR-31903
# [20] = NRS201, B. cereus NRS 201 NR-2488
compound,measurement,setting,value
O=C(O)[C@H](Cc1ccccc1)N1C(=O)/C(=C/c2cccc(Cc3ccc(Cl)c(Cl)c3)c2)SC1=S [Rh 3],MBC,[1]; E. faecium E417 HM-965,64 µM
same,MIC,[1]; E. faecium E417 HM-965,4 µM
same,MBC,[1]; E. faecium E1071 NR-28978,> 64 µM
same,MIC,[1]; E. faecium E1071 NR-28978,8 µM
same,MBC,[1]; [17],64 µM
same,MIC,[1]; [17],4 µM
same,MBC,[1]; [18],64 µM
same,MIC,[1]; [18],8 µM
same,MBC,[1]; [19],64 µM
same,MIC,[1]; [19],4 µM
same,MIC50,[2]; 11 MRSA strains,8 µM
same,MIC90,[2]; 11 MRSA strains,16 µM
same,MBC,[2]; MRSA NRS 1,8 µM
same,MIC,[2]; MRSA NRS 1,8 µM
same,MBC,[2]; MRSA NRS 19,8 µM
same,MIC,[2]; MRSA NRS 19,8 µM
same,MBC,[2]; MRSA NRS 37,16 µM
same,MIC,[2]; MRSA NRS 37,8 µM
same,MBC,[2]; MRSA NRS 107,32 µM
same,MIC,[2]; MRSA NRS 107,8 µM
same,MBC,[2]; MRSA NRS 119,8 µM
same,MIC,[2]; MRSA NRS 119,8 µM
same,MBC,[2]; MRSA NRS 382,32 µM
same,MIC,[2]; MRSA NRS 382,16 µM
same,MBC,[2]; MRSA NRS 383,8 µM
same,MIC,[2]; MRSA NRS 383,8 µM
same,MBC,[2]; MRSA NRS 384,16 µM
same,MIC,[2]; MRSA NRS 384,16 µM
same,MBC,[2]; MRSA NRS 385,16 µM
same,MIC,[2]; MRSA NRS 385,16 µM
same,MBC,[2]; MRSA NRS 386,32 µM
same,MIC,[2]; MRSA NRS 386,8 µM
same,MBC,[2]; MRSA NRS 387,32 µM
same,MIC,[2]; MRSA NRS 387,16 µM
same,MBC,[3]; B. cereus BAG1O-2 NR-28582,4 µM
same,MIC,[3]; B. cereus BAG1O-2 NR-28582,4 µM
same,MBC,[3]; B. cereus BAG1X1-1 NR-28575,2 µM
same,MIC,[3]; B. cereus BAG1X1-1 NR-28575,2 µM
same,MBC,[3]; B. cereus BAG1X2-1 NR-28578,4 µM
same,MIC,[3]; B. cereus BAG1X2-1 NR-28578,4 µM
same,MBC,[3]; B. cereus G9241 NR-9564,4 µM
same,MIC,[3]; B. cereus G9241 NR-9564,4 µM
same,MBC,[3]; B. cereus VD014 NR-22141,4 µM
same,MIC,[3]; B. cereus VD014 NR-22141,4 µM
same,MBC,[3]; B. cereus VD115 NR-22148,4 µM
same,MIC,[3]; B. cereus VD115 NR-22148,4 µM
same,MBC,[3]; B. cereus VD148 NR-22150,8 µM
same,MIC,[3]; B. cereus VD148 NR-22150,8 µM
same,MBC,[3]; [20],4 µM
same,MIC,[3]; [20],4 µM
same,MIC50,[4],4 µM
same,MIC90,[4],4 µM
same,MBC,[5]; read-out: MBC,8 µM
same,MIC,[5]; read-out: MIC,4 µM
same,MIC,[6]; ATCC9721,> 128 µM
same,MIC,[6]; ATCC15442,> 128 µM
same,MIC,[7]; K. pneumoniae NR-15417,>128 µM
same,MIC,[7]; Klebsiella pneumoniae,> 128 µM
same,MIC,"[8]; ATCC10231, C. albicans ATCC 10231, unit from abstract",> 64 µM
same,MIC,"[8]; C. albicans NR 29434, unit from abstract",> 64 µM
same,MIC,"[8]; C. albicans NR 29435, unit from abstract",> 64 µM
same,MIC,"[8]; C. albicans NR29437, unit from abstract",> 64 µM
same,MIC,"[8]; C. albicans NR29438, unit from abstract",> 64 µM
same,MIC,"[8]; C. albicans NR 29446, unit from abstract",64 µM
same,MIC,"[8]; C. albicans NR 29448, unit from abstract",> 64 µM
same,MIC,"[8]; C. albicans NR 29449, unit from abstract",> 64 µM
same,MIC,"[8]; C. albicans NR 29453, unit from abstract",> 64 µM
same,MIC,"[8]; C. albicans NR 294436, unit from abstract",> 64 µM
same,MIC,"[9]; Acinetobacter baumannii ATCC BAA747, colistin (+) […], read-out: MIC",>64 µM
same,MIC,"[9]; Acinetobacter baumannii ATCC BAA19606, colistin (+) […], read-out: MIC",>64 µM
same,MIC,"[9]; Acinetobacter baumannii, ATCCBAA747",> 128 µM
same,MIC,"[9]; Acinetobacter baumannii, ATCCBAA19606",> 128 µM
same,MIC,"[10]; Escherichia coli O157:H7 ATCC 35150, colistin (+) […], read-out: MIC",>64 µM
same,MIC,"[10]; Escherichia coli O157:H7 ATCC 700728, colistin (+) […], read-out: MIC",>64 µM
same,MIC,"[10]; Escherichia coli, ATCC35150",> 128 µM
same,MIC,"[10]; Escherichia coli, ATCC700728",> 128 µM
same,MIC,"[11]; Salmonella Typhimurium ATCC 700720, colistin (+) […], read-out: MIC",>64 µM
same,MIC,"[11]; Salmonella enterica, ATCC 700720 / TYPHIMURIUM",> 128 µM
same,MIC,"[12]; Klebsiella pneumoniae ATCC BAA 2146, colistin (+) […]",>64 µM
same,MIC,"[12]; Klebsiella pneumoniae, BAA2146",> 128 µM
same,MIC,"[13]; Pseudomonas aeruginosa ATCC 921, colistin (+) […], read-out: MIC",>64 µM
same,MIC,"[13]; Pseudomonas aeruginosa, ATCC921",> 128 µM
same,MIC,"[14]; Escherichia coli O157:H7 ATCC 35150, PMBN (+) 4 μg/mL, read-out: MIC",8 µM
same,MIC,"[14]; Escherichia coli O157:H7 ATCC 700728, PMBN (+) 4 μg/mL, read-out: MIC",>64 µM
same,MIC,"[14]; Escherichia coli, ATCC35150",> 256 µM
same,MIC,"[14]; Escherichia coli, ATCC700728",> 128 µM
same,MIC,"[15]; Pseudomonas aeruginosa ATCC 9721, PMBN (+) 4 μg/mL, read-out: MIC",>64 µM
same,MIC,"[15]; Pseudomonas aeruginosa, ATCC9721",> 128 µM
same,MIC,[16]; E.coli 1411,> 64 µM
same,MIC,"[16]; E.coli 1411 SM (Δ acrAB, AcrAB efflux pump deficient)",> 64 µM
